Key:
DU-145 = experiment: Antiproliferative activity against human DU145 cells measured after 72 hrs by EZ-Cytox assay; type: functional, cell-based; details: DU-145, 72 h
[1] = molecular target: T1, DNA topoisomerase 1 (Homo sapiens) (UniProt P11387); experiment: Inhibition of recombinant human topoisomerase 1-mediated relaxation of supercoiled pBR322 DNA at 100 uM measured after 30 mins by ethidium bromide staining based agarose gel electrophoresis relative to control
T1 sequence (whole entry): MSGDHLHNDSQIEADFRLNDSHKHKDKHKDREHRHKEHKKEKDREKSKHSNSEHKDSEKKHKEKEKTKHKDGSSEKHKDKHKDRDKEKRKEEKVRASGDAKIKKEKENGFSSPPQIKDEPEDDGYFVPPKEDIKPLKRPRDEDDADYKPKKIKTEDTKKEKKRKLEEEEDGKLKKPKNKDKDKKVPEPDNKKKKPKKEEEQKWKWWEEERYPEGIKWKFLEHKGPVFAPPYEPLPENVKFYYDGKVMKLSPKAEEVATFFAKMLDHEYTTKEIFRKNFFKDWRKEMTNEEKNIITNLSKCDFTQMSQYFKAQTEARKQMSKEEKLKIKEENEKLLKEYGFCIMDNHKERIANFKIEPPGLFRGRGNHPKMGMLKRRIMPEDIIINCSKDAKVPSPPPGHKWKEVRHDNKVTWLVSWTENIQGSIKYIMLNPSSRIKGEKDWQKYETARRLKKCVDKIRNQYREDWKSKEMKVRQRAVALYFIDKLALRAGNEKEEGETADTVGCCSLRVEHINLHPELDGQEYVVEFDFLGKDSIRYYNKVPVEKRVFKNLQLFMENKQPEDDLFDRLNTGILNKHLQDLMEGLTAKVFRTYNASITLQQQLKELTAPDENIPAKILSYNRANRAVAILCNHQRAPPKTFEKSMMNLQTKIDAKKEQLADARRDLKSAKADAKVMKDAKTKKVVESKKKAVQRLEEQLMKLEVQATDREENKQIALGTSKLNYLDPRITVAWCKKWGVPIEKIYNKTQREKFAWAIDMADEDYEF

[2] = molecular target: DNA topoisomerase 2-alpha (Homo sapiens) (UniProt P11388); experiment: Inhibition of recombinant human topoisomerase 2alpha-mediated relaxation of supercoiled pBR322 DNA at 20 uM measured after 30 mins by ethidium bromide staining based agarose gel electrophoresis relative to control
HeLa = experiment: Antiproliferative activity against human HeLa cells measured after 72 hrs by EZ-Cytox assay; type: functional, cell-based
T47D = experiment: Antiproliferative activity against human T47D cells measured after 72 hrs by EZ-Cytox assay; type: functional, cell-based
HCT-15 = experiment: Antiproliferative activity against human HCT15 cells measured after 72 hrs by EZ-Cytox assay; type: functional, cell-based; details: HCT-15, 72 h
[3] = molecular target: DNA topoisomerase 2-alpha (Homo sapiens) (UniProt P11388); experiment: Inhibition of recombinant human topoisomerase 2alpha-mediated relaxation of supercoiled pBR322 DNA at 100 uM measured after 30 mins by ethidium bromide staining based agarose gel electrophoresis relative to control

Chain of DNA topoisomerase 2-alpha (Homo sapiens) (P11388 whole entry): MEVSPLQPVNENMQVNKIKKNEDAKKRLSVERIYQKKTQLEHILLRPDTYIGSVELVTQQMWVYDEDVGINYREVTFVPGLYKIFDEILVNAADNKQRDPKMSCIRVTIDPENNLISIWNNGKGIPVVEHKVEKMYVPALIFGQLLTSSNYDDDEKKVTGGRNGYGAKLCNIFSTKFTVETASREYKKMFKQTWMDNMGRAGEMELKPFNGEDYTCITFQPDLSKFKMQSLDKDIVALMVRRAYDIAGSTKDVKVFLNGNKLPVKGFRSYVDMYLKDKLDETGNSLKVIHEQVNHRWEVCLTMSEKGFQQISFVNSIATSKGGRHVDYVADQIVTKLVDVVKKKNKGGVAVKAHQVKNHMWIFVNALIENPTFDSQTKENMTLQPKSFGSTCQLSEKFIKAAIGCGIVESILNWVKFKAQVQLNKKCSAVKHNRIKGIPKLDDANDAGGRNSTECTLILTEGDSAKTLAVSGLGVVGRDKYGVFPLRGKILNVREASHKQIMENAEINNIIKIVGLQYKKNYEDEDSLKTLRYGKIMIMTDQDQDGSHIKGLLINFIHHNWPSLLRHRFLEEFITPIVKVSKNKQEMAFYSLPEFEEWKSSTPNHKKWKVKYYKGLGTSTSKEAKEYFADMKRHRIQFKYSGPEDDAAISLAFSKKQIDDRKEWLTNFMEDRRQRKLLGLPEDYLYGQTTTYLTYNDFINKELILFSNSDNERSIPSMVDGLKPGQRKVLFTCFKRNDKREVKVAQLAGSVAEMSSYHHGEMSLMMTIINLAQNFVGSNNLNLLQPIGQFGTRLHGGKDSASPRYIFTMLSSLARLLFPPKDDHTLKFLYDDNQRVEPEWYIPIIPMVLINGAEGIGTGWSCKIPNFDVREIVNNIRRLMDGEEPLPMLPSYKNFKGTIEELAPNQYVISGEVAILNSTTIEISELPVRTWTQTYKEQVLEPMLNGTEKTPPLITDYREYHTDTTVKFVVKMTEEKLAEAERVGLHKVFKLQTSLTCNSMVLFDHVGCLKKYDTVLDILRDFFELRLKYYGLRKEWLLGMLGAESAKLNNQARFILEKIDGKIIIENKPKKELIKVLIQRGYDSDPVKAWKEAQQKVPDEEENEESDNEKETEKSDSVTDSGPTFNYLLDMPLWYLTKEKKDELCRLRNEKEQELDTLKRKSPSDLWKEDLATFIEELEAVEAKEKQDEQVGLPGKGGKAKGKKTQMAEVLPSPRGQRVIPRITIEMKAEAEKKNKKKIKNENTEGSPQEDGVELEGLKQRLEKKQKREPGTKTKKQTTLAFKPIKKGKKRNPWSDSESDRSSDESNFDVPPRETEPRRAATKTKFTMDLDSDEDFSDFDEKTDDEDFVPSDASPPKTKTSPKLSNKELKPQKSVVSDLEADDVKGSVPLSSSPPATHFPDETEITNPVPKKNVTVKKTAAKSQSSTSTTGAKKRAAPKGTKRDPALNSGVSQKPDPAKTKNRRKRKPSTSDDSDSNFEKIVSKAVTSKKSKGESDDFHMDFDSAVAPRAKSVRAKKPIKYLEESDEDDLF

Structure (SMILES) | IC50 (DU-145) | inhibition [1] | inhibition [2] | IC50 (HeLa) | IC50 (T47D) | IC50 (HCT-15) | inhibition [3]
Oc1ccc(-c2cc(-c3cccc(Cl)c3)nc3c2Cc2cc(O)ccc2-3)cc1 | 1.2 µM | 0% | 31.9% | 1.17 µM | 1.2 µM | 0.75 µM | 100%
Oc1cccc(-c2cc(-c3cccc(F)c3)nc3c2Cc2cc(O)ccc2-3)c1 | 1.41 µM | 17.5% | 0% | 3.85 µM | 0.79 µM | 2.71 µM | 66.2%
Oc1cccc(-c2cc(-c3ccc(Cl)cc3)c3c(n2)-c2cccc(O)c2C3)c1 | 3.94 µM | 0% | 4.4% | 4.63 µM | 2.11 µM | 2.58 µM | 86.3%
Oc1ccc(-c2cc(-c3cccc(C(F)(F)F)c3)nc3c2Cc2c(O)cccc2-3)cc1 | 1.75 µM | 9.4% | 0% | 4.57 µM | 1.23 µM | 2.62 µM | 84.4%
Oc1ccccc1-c1cc(-c2cccc(C(F)(F)F)c2)nc2c1Cc1c(O)cccc1-2 | 1.87 µM | 0.3% | 5.3% | 4.25 µM | 0.77 µM | 3.34 µM | 94.2%
Oc1ccc2c(c1)-c1nc(-c3ccccc3Cl)cc(-c3ccccc3O)c1C2 | 0.77 µM | 0% | 5.8% | 6.71 µM | 2.84 µM | 4.94 µM | 76.8%
Oc1ccc(-c2cc(-c3ccccc3F)nc3c2Cc2cccc(O)c2-3)cc1 | 10.3 µM | 11.7% | 1.4% | > 50 µM | 47.2 µM | > 50 µM | 47.1%
Oc1cccc(-c2cc(-c3ccc(F)cc3)nc3c2Cc2cc(O)ccc2-3)c1 | 2.94 µM | 22.3% | 28.7% | 3.74 µM | 1.72 µM | 1.92 µM | 65.1%
Oc1ccc(-c2cc(-c3ccccc3)c3c(n2)-c2cc(O)ccc2C3)cc1 | 0.57 µM | 20.9% | 9.3% | 2.74 µM | 3.43 µM | 1.43 µM | 54.8%
Oc1ccc2c(c1)Cc1c(-c3ccccc3O)cc(-c3ccccc3)nc1-2 | 1 µM | 8.2% | 0% | 27.4 µM | 2.44 µM | 2.08 µM | 74.8%
Oc1cccc(-c2cc(-c3ccc(Cl)cc3)c3c(n2)-c2c(O)cccc2C3)c1 | 4.07 µM | 9.3% | 8.5% | 9.01 µM | 2.22 µM | 14.7 µM | 95.7%
Oc1ccccc1-c1cc(-c2ccc(C(F)(F)F)cc2)nc2c1Cc1c(O)cccc1-2 | 3.46 µM | 0% | 2.4% | 6.14 µM | 1.33 µM | 4.54 µM | 98.9%
Oc1ccc(-c2cc(-c3ccccc3Cl)c3c(n2)-c2c(O)cccc2C3)cc1 | 0.86 µM | 10.3% | 0.8% | 2.79 µM | 0.96 µM | 1.05 µM | 66.9%
Oc1cccc(-c2cc(-c3cccc(Cl)c3)c3c(n2)-c2cc(O)ccc2C3)c1 | 3.22 µM | 11.6% | 3.5% | 6.24 µM | 7.2 µM | 6.6 µM | 76.3%
Oc1ccc(-c2cc(-c3cccc(C(F)(F)F)c3)nc3c2Cc2ccc(O)cc2-3)cc1 | 2.15 µM | 8.5% | 11.1% | 3.06 µM | 4.69 µM | 2.77 µM | 87.1%
Oc1cccc(-c2cc(-c3cccc(C(F)(F)F)c3)nc3c2Cc2cccc(O)c2-3)c1 | 2.77 µM | 0.2% | 0.7% | > 50 µM | 3.63 µM | 14.2 µM | 71.6%
Oc1ccccc1-c1cc(-c2ccccc2Cl)c2c(n1)-c1cccc(O)c1C2 | 4.03 µM | 23.7% | 1.8% | 4.59 µM | 3.03 µM | 4.12 µM | 79.2%

Structure (SMILES) | IC50 (DU-145) | inhibition [1] | inhibition [2] | IC50 (HeLa) | IC50 (T47D) | IC50 (HCT-15) | inhibition [3]
Oc1cccc(-c2cc(-c3ccc(Cl)cc3)nc3c2Cc2ccc(O)cc2-3)c1 | 4.43 µM | 16.7% | 51.9% | 1.73 µM | 3.5 µM | 0.86 µM | 87.8%
Oc1ccc(-c2cc(-c3ccccc3Cl)c3c(n2)-c2ccc(O)cc2C3)cc1 | 3.25 µM | 11.9% | 7% | 4.92 µM | 2.7 µM | 4.27 µM | 80%
Oc1ccc(-c2cc(-c3ccc(Cl)cc3)c3c(n2)-c2c(O)cccc2C3)cc1 | > 50 µM | 0% | 9.3% | > 50 µM | > 50 µM | > 50 µM | 96.8%
Oc1cccc(-c2cc(-c3cccc(F)c3)nc3c2Cc2c(O)cccc2-3)c1 | 2.37 µM | 9.8% | 5.6% | 7.04 µM | 0.89 µM | 4.9 µM | 43.2%
Oc1cccc(-c2cc(-c3cccc(Cl)c3)nc3c2Cc2cccc(O)c2-3)c1 | 3.48 µM | 16.9% | 3.4% | 4.59 µM | 1.63 µM | 2.49 µM | 88.6%
Oc1cccc(-c2cc(-c3cccc(Cl)c3)c3c(n2)-c2c(O)cccc2C3)c1 | 17.1 µM | 8.9% | 0.3% | > 50 µM | > 50 µM | > 50 µM | 71.9%
Oc1ccc2c(c1)-c1nc(-c3ccccc3)cc(-c3ccccc3O)c1C2 | 0.15 µM | 0% | 0% | 3.74 µM | 2.33 µM | 3.01 µM | 97.4%
Oc1ccccc1-c1cc(-c2cccc(C(F)(F)F)c2)nc2c1Cc1cccc(O)c1-2 | 3.38 µM | 2.7% | 4.3% | 5.73 µM | 0.98 µM | 2.84 µM | 95.8%
Oc1ccc2c(c1)Cc1c(-c3ccc(Cl)cc3)cc(-c3ccccc3O)nc1-2 | > 50 µM | 21.4% | 0% | > 50 µM | > 50 µM | > 50 µM | 70.8%
Oc1cccc(-c2cc(-c3ccc(Cl)cc3)nc3c2Cc2cc(O)ccc2-3)c1 | 1.28 µM | 0% | 11.2% | 1.09 µM | 1.5 µM | 0.85 µM | 95%
Oc1cccc(-c2cc(-c3ccc(Cl)cc3)c3c(n2)-c2cc(O)ccc2C3)c1 | 32.2 µM | 7.3% | 12.4% | > 50 µM | > 50 µM | > 50 µM | 80.4%
Oc1cccc(-c2cc(-c3cccc(C(F)(F)F)c3)nc3c2Cc2cc(O)ccc2-3)c1 | 1.42 µM | 10.2% | 29% | 2.03 µM | 1.33 µM | 2.22 µM | 85.2%
Oc1ccc(-c2cc(-c3ccc(Cl)cc3)c3c(n2)-c2cc(O)ccc2C3)cc1 | 1.74 µM | 14.2% | 10.8% | 10.1 µM | 2.67 µM | 12 µM | 95.3%
Oc1ccccc1-c1cc(-c2cccc(Cl)c2)c2c(n1)-c1c(O)cccc1C2 | 2.82 µM | 0% | 2.4% | 14.3 µM | 1.97 µM | 2.46 µM | 74.5%
Oc1ccccc1-c1cc(-c2ccccc2)nc2c1Cc1c(O)cccc1-2 | 0.8 µM | 0% | 0% | 6.32 µM | 2.33 µM | 3.47 µM | 78.5%
Oc1ccccc1-c1cc(-c2ccccc2Cl)c2c(n1)-c1c(O)cccc1C2 | 5.67 µM | 23.9% | 1.6% | > 50 µM | 2.93 µM | 2.03 µM | 56.5%

— ChEMBL document CHEMBL4373715, “Discovery and Biological Evaluations of Halogenated 2,4-Diphenyl Indeno[1,2-b]pyridinol Derivatives as Potent Topoisomerase IIα-Targeted Chemotherapeutic Agents for Breast Cancer” (J Med Chem, 2019)
